We go through two compounds from ChEMBL document CHEMBL1158065, “Prenylated phenolics from Ganoderma fornicatum” (J Nat Prod, 2006).

Each structure is given as a SMILES string. Converted amounts (≈) assume the structure as drawn.

This experiment deals with HEp-2. Put plainly: Cytotoxicity against human Hep2 cells by MTT method. Type of experiment: functional, cell-based. (In general: Formazan colour is commonly taken as a measure of viable cells.)

Compound `COC1(c2cc(O)ccc2O)C=C(CC/C=C(\C)CCC=C(C)C)C(=O)O1` (configuration not stated) [FORNICIN B] returned an IC50 of 15 mg/L (≈ 40.3 µM). The figure for `CC(C)=CCC/C(C)=C/CCC(CC(=O)c1cc(O)ccc1O)C(=O)O` (configuration not stated) [FORNICIN C] is 23 mg/L (≈ 63.8 µM).

Broadly, the IC50 is the point on the concentration scale where inhibition reaches its midpoint. The low end stands for greater potency, the high end for weaker potency.
